In brackets after ≈: the same amount, converted by molar mass. Several values for one entry are separate records, joined by “and”; a condition that tells them apart may be missing. Equal entries are not always repeated. Each block holds one compound with its values, some of them ahead of it.
Tests used:
[1] = system: S. pyogenes ATCC 19615; assay: MIC/MBC broth microdilution, S. pyogenes; assay type: cell-based, Streptococcus pyogenes; details: S. pyogenes
Outline: (§1)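 Standard NCCLS broth microdilution in BHI broth, inoculum approx. 10^5 CFU/mL, serially diluted peptidomimetics, 18 h at 37 °C. MIC was the lowest concentration with no obvious growth (≥90% inhibition versus untreated); MBC was the lowest giving ≤3 colonies on subculture (≥99.9% kill).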

[2] = Hydrophobicity by reverse-phase chromatography; assay type: physicochemical; details: acetonitrile content in the mobile phase at the retention time
Description: Reverse-phase chromatography was employed to assess the hydrophobicity characteristics of the peptidomimetics. Hydrophobicity was quantified by determining the acetonitrile content in the mobile phase at the retention time of a peptidyl derivative (Table S2). The least hydrophobic compound (40% acetonitrile) was A-198, which aligns with the calculations of hydrophobicity by SwissADME and pkCSM (Table ). Next in the hydrophobicity sequence were A-197, A-220, A-219, A-174, and A-221, eluting with 42.5-43.9% of acetonitrile. Then there were followed by […], and A-179, with the acetonitrile percentage of 44.8-49.8. The compounds A-176, A-20, A-152, A-134, and A-210 needed over 50% of acetonitrile to be eluted from the column.

[3] = system: P. aeruginosa ATCC 10145; assay: MIC/MBC broth microdilution, P. aeruginosa; assay type: cell-based
Outline: as §1

[4] = system: P. vulgaris ATCC 6896; assay: MIC/MBC broth microdilution, P. vulgaris; assay type: cell-based, Proteus vulgaris
Outline: as §1

[5] = system: S. mutans c.i.; assay: MIC/MBC broth microdilution, S. mutans; assay type: cell-based, Streptococcus mutans
Outline: as §1

[6] = system: S. aureus ATCC 43300; assay: MIC/MBC broth microdilution, S. aureus; assay type: cell-based, Staphylococcus aureus; details: S. aureus
[7] = system: fibroblasts (46BR.1N); assay: LDH cytotoxicity test, fibroblasts; assay type: cell-based; details: for concentration at which cytotoxic effect starts: LDH
Outline: (§2)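 HaCaT keratinocytes and 46BR.1N fibroblasts, 5000 cells per well, grown 24 h, then exposed to peptidomimetics at 50, 100 and 150 μg/mL in serum-free medium for 48 h. LDH release in supernatant read at 450 nm, normalized to untreated (0%) and 1% Triton X-100 (maximal) controls.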

[8] = system: K. pneumoniae ATCC 700603; assay: MIC/MBC broth microdilution, K. pneumoniae; assay type: cell-based
Outline: as §1

[9] = system: S. schleiferi c.i.; assay: MIC/MBC broth microdilution, S. schleiferi; assay type: cell-based, Staphylococcus schleiferi
Outline: as §1

[10] = system: human dermal fibroblast cell line (46BR.1N); assay: XTT cell proliferation assay, fibroblasts; assay type: cell-based; details: XTT, 48 and 72 h, 0.01–150 μg/mL
Outline: (§3)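 Cells at 37 °C, 5% CO2 received peptidomimetics in serum-free HG-DMEM for 48 or 72 h; for 72 h, half the medium was renewed and peptide re-added at 48 h. XTT reagent was then incubated 4 h and absorbance read at 490 nm; Mann–Whitney U test, p ≤ 0.05.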

[11] = system: S. cohnii c.i.; assay: MIC/MBC broth microdilution, S. cohnii; assay type: cell-based, Staphylococcus cohnii
Outline: as §1

[12] = system: immortalized human HaCaT keratinocytes; assay: XTT cell proliferation assay, keratinocytes; assay type: cell-based; details: XTT, 48 and 72 h, 0.01–150 μg/mL
Outline: as §3

[13] = system: E. faecalis c.i.; assay: MIC/MBC broth microdilution, E. faecalis; assay type: cell-based, Enterococcus faecalis
Outline: as §1

[14] = system: immortalized human keratinocytes (HaCaT); assay: LDH cytotoxicity test, keratinocytes; assay type: cell-based; details: for concentration at which cytotoxic effect starts: LDH
Outline: as §2

[15] = system: S. agalactiae ATCC 27956; assay: MIC/MBC broth microdilution, S. agalactiae; assay type: cell-based, Streptococcus agalactiae; details: S. agalactiae
Outline: as §1

[16] = system: E. coli ATCC 25922; assay: MIC/MBC broth microdilution, E. coli; assay type: cell-based, Escherichia coli
Outline: as §1

[17] = 48 h, 50, 100 and 150 μg/mL, vs 1% Triton X-100

MIC ([1]; H2O): > 512 µg/mL | MIC ([1]; water additive DMSO): > 512 µg/mL | MIC ([1]; water additive EtOH): > 512 µg/mL | % AcCN (acetonitrile required for elution from the column) [2]: 42.5% | MIC ([3]; H2O): > 512 µg/mL | MIC ([3]; water additive DMSO): > 512 µg/mL | MIC ([3]; water additive EtOH): > 512 µg/mL | MIC ([4]; H2O): > 512 µg/mL | MIC ([4]; water additive DMSO): > 512 µg/mL | MIC ([4]; water additive EtOH): > 512 µg/mL | MIC ([5]; H2O): 256 µg/mL (≈ 506 µM) | MIC ([6]; H2O): > 512 µg/mL | MIC ([6]; water additive DMSO): > 512 µg/mL | MIC ([6]; water additive EtOH): > 512 µg/mL | MIC ([8]; H2O): > 512 µg/mL | MIC ([8]; water additive DMSO): > 512 µg/mL | MIC ([8]; water additive EtOH): > 512 µg/mL | MIC ([9]; H2O): 256 µg/mL (≈ 506 µM) | MIC ([9]; water additive DMSO): 256 µg/mL (≈ 506 µM) | MIC ([9]; water additive EtOH): 256 µg/mL (≈ 506 µM) | MIC ([11]; H2O): > 512 µg/mL | MIC ([11]; water additive DMSO): > 512 µg/mL | MIC ([11]; water additive EtOH): > 512 µg/mL | MIC ([13]; H2O): > 512 µg/mL | MIC ([13]; water additive DMSO): > 512 µg/mL | MIC ([13]; water additive EtOH): > 512 µg/mL | MIC ([15]; H2O): > 512 µg/mL | MIC ([15]; water additive DMSO): > 512 µg/mL | MIC ([15]; water additive EtOH): > 512 µg/mL | MIC ([16]; H2O): > 512 µg/mL | MIC ([16]; water additive DMSO): > 512 µg/mL | MIC ([16]; water additive EtOH): > 512 µg/mL
SMILES: CC(C)C[C@H](NC(=O)[C@H](CCCNC(=N)N)NC(=O)OCc1ccccc1)C(=O)N[C@H](CN)C(C)C [Compound A-197]
MBC ([5]; H2O): 512 µg/mL (≈ 1010 µM) | MBC ([5]; water additive EtOH): 256 µg/mL (≈ 506 µM) | cytotoxicity (LDH), in words ([7]; 48 h, 50-150 μg/mL): no cytotoxicity | concentration at which cytotoxic effect starts ([7]; 48 h): > 150 µg/mL | effect on proliferation, in words [10]: did not exert any negative impact | effect on proliferation, in words [12]: did not exert any negative impact | cytotoxicity (LDH), in words ([14]; 48 h, 50-150 μg/mL): no cytotoxicity | concentration at which cytotoxic effect starts ([14]; 48 h): > 150 µg/mL

MIC ([1]; H2O): > 512 µg/mL | MIC ([1]; water additive DMSO): > 512 µg/mL | MIC ([1]; water additive EtOH): > 512 µg/mL | % AcCN (acetonitrile required for elution from the column) [2]: 49.6% and 44.8–49.8% | MIC ([3]; H2O): > 512 µg/mL | MIC ([3]; water additive DMSO): > 512 µg/mL | MIC ([3]; water additive EtOH): > 512 µg/mL | MIC ([4]; H2O): > 512 µg/mL | MIC ([4]; water additive DMSO): > 512 µg/mL | MIC ([4]; water additive EtOH): > 512 µg/mL | MIC ([6]; H2O): > 512 µg/mL | MIC ([6]; water additive DMSO): > 512 µg/mL | MIC ([6]; water additive EtOH): > 512 µg/mL | MIC ([8]; H2O): > 512 µg/mL | MIC ([8]; water additive DMSO): > 512 µg/mL | MIC ([8]; water additive EtOH): > 512 µg/mL | MIC ([9]; H2O): 256 µg/mL (≈ 446 µM) | MIC ([9]; water additive DMSO): 256 µg/mL (≈ 446 µM) | MIC ([9]; water additive EtOH): 256 µg/mL (≈ 446 µM) | MIC ([11]; H2O): > 512 µg/mL | MIC ([11]; water additive DMSO): > 512 µg/mL | MIC ([11]; water additive EtOH): > 512 µg/mL | MIC ([13]; H2O): > 512 µg/mL | MIC ([13]; water additive DMSO): > 512 µg/mL | MIC ([13]; water additive EtOH): > 512 µg/mL | MIC ([15]; H2O): > 512 µg/mL | MIC ([15]; water additive DMSO): > 512 µg/mL | MIC ([15]; water additive EtOH): > 512 µg/mL | MIC ([16]; H2O): > 512 µg/mL | MIC ([16]; water additive DMSO): > 512 µg/mL | MIC ([16]; water additive EtOH): > 512 µg/mL
SMILES: C=CCC(=O)NC[C@@H](NC(=O)[C@H](CC(C)C)NC(=O)[C@H](CCCNC(=N)N)NC(=O)OCc1ccccc1)C(C)C [Compound A-209]
MBC ([5]; H2O): 256 µg/mL (≈ 446 µM) | MBC ([5]; water additive DMSO): 256 µg/mL (≈ 446 µM) | MBC ([5]; water additive EtOH): 256 µg/mL (≈ 446 µM) | cytotoxicity (LDH) [7, 17]: 10–15% | concentration at which cytotoxic effect starts ([7]; 48 h): > 150 µg/mL and 150 µg/mL | MBC ([9]; H2O): 512 µg/mL (≈ 892 µM) | MBC ([9]; water additive DMSO): 512 µg/mL (≈ 892 µM) | MBC ([9]; water additive EtOH): 512 µg/mL (≈ 892 µM) | effect on proliferation, in words [10]: did not exert any negative impact | effect on proliferation, in words [12]: did not exert any negative impact | cytotoxicity (LDH) [14, 17]: 10–15% | concentration at which cytotoxic effect starts ([14]; 48 h): > 150 µg/mL and 150 µg/mL
